Experimental data reported in US11845760B2, “PRMT5 inhibitors” (AMGEN INC., priority 2020, dated 2023).

Tests used:
[1] = system: HCT116 MTAP null cells; experiment: HCT116 MTAP null cell line proliferation (CellTiter-Glo cell viability, 6 days); type: cell-based; conditions: HCT116-MTAP null, 144 h, HCT116 MTAP null cells, 6 days of treatment, CellTiter-Glo cell viability; read-out: HCT-116 MTAP null IC50
How it was run: (§1)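 Isogenic HCT116 pair (both MTAP alleles knocked out vs parent) in RPMI 1640 + 10% FBS, seeded overnight at 37° C, 5% CO2, then exposed 6 days to 8- or 9-point 1:3 dilutions from 1 or 10 μM. CellTiter-Glo luminescence; IC50 from sigmoidal fit, Hill slope fixed −1, top 100%, or 4-parameter logistic.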

[2] = system: HCT116 WT cells; experiment: HCT116 WT cell line proliferation (CellTiter-Glo cell viability, 6 days); type: cell-based; conditions: Homo sapiens, HCT-116, 144 h, HCT116 WT (parent) cells, 6 days of treatment, CellTiter-Glo cell viability; read-out: HCT-116 WT IC50
How it was run: as §1

Compound | IC50 [1] | IC50 [2]
C[C@@H]1COC[C@H](c2ccc(OC(F)(F)F)cc2)N1C(=O)c1cc2c(cc1F)nc(N)c1c2cnn1C [Example 532, (4-amino-7-fluoro-3-methyl-3H-pyrazolo[3,4-c]quinolin-8-yl)((3R,5S)-3-methyl-5-(4-(trifluoromethoxy)phenyl)-4-morpholinyl)methanone] | 19 nM | 400 nM
C[C@@H]1COC[C@H](c2ccc(C(F)(F)F)cc2)N1C(=O)c1ccc2nc(N)c3c(cnn3C)c2c1 [Example 533, (4-amino-3-methyl-3H-pyrazolo[3,4-c]quinolin-8-yl)((3R,5S)-3-methyl-5-(4-(trifluoromethyl)phenyl)-4-morpholinyl)methanone] | 45 nM | 2480 nM
C[C@@H]1COC[C@H](c2ccc(OC(F)(F)F)cc2)N1C(=O)c1ccc2nc(N)c3c(cnn3C)c2c1 [Example 534, (4-amino-3-methyl-3H-pyrazolo[3,4-c]quinolin-8-yl)((3R,5S)-3-methyl-5-(4-(trifluoromethoxy)phenyl)-4-morpholinyl)methanone] | 44 nM | 2610 nM
CCOc1ccc([C@H]2COC[C@@H](C)N2C(=O)c2cc3c4c(c(N)nc3cn2)COC4)nn1 [Example 535, (4-amino-1,3-dihydrofuro[3,4-c][1,7]naphthyridin-8-yl)((3S,5R)-3-(6-ethoxy-3-pyridazinyl)-5-methyl-4-morpholinyl)methanone] | 64 nM | 3160 nM
C[C@@H]1COC[C@H](c2ccc(OC(F)(F)F)cc2)N1C(=O)c1ccc2nc(N)c3c(c2c1)CO[C@@H]3C [Example 536, ((3R)-4-amino-3-methyl-1,3-dihydrofuro[3,4-c]quinolin-8-yl)((3R,5S)-3-methyl-5-(4-(trifluoromethoxy)phenyl)-4-morpholinyl)methanone] | 19 nM | 646 nM
CCOc1ccc([C@H]2COC[C@@H](C)N2C(=O)c2ccc3nc(N)c4c(c3c2)CO[C@@H]4C)nn1 [Example 537, ((3R)-4-amino-3-methyl-1,3-dihydrofuro[3,4-c]quinolin-8-yl)((3S,5R)-3-(6-ethoxy-3-pyridazinyl)-5-methyl-4-morpholinyl)methanone] | 55 nM | 2500 nM
COc1ccc([C@H]2COC[C@@H](C)N2C(=O)c2ccc3nc(N)c4c(cnn4C)c3c2)nn1 [Example 538, (4-amino-3-methyl-3H-pyrazolo[3,4-c]quinolin-8-yl)((3S,5R)-3-(6-methoxy-3-pyridazinyl)-5-methyl-4-morpholinyl)methanone] | 282 nM | 13300 nM
COc1ccc([C@H]2COC[C@@H](C)N2C(=O)c2cc3c(cc2F)nc(N)c2c3cnn2C)nn1 [Example 539, (4-amino-7-fluoro-3-methyl-3H-pyrazolo[3,4-c]quinolin-8-yl)((3S,5R)-3-(6-methoxy-3-pyridazinyl)-5-methyl-4-morpholinyl)methanone] | 27 nM | 1270 nM
COc1ccc([C@H]2COC[C@@H](C)N2C(=O)c2cc3c4c(c(N)nc3cc2F)COC4)nn1 [Example 540, (4-amino-7-fluoro-1,3-dihydrofuro[3,4-c]quinolin-8-yl)((3S,5R)-3-(6-methoxy-3-pyridazinyl)-5-methyl-4-morpholinyl)methanone] | 19 nM | 579 nM
Cn1ncc2c3cc(C(=O)N4CCOC[C@@H]4c4ccc(S(F)(F)(F)(F)F)cc4)c(F)cc3nc(N)c21 [Example 544, (4-amino-7-fluoro-3-methyl-3H-pyrazolo[3,4-c]quinolin-8-yl)((3S)-3-(4-(pentafluoro-lambda~6~- sulfanyl)phenyl)-4-morpholinyl)methanone] | 24 nM | 1010 nM
Cn1ncc2c(N)nc3cc(F)c(C(=O)N4CCOC[C@@H]4c4ccc(F)cc4)cc3c21 [Example 545, (4-amino-7-fluoro-1-methyl-1H-pyrazolo[4,3-c]quinolin-8-yl)((3S)-3-(4-fluorophenyl)-4-morpholinyl)methanone] | 31 nM | 1430 nM
Cn1ncc2c(N)nc3cc(Cl)c(C(=O)N4CCOC[C@@H]4c4ccc(C(F)(F)F)cc4)cc3c21 [Example 546, (4-amino-7-chloro-1-methyl-1H-pyrazolo[4,3-c]quinolin-8-yl)((3S)-3-(4-(trifluorometliyl)phenyl)-4-morpholinyl)methanone] | 13 nM | 198 nM
Cn1ncc2c(N)nc3cc(C(F)(F)F)c(C(=O)N4CC[C@H](c5ccc(C(F)(F)F)cc5)C4)cc3c21 [Example 547, (4-amino-1-methyl-7-(trifluoromethyl)-1H-pyrazolo[4,3-c]quinolin-8-yl)((3R)-3-(4-(trifluoromethyl)phenyl)-1-pyrrolidinyl)methanone] | 396 nM | 3850 nM
Cn1ncc2c(N)nc3cc(C(F)(F)F)c(C(=O)N4CCOC[C@@H]4c4ccc(C(F)(F)F)cc4)cc3c21 [Example 548, (4-amino-1-methyl-7-(trifluoromethyl)-1H-pyrazolo[4,3-c]quinolin-8-yl)((3S)-3-(4-(trifluoromethyl)phenyl)-4-morpholinyl)methanone] | 269 nM | 8110 nM
Nc1nc2cnc(C(=O)N3CCOC[C@@H]3c3ccc(C(F)(F)F)nn3)cc2c2c1COC2 [Example 549, (4-amino-1,3-dihydrofuro[3,4-c][1,7]naphthyridin-8-yl)((3S)-3-(6-(trifluoromethyl)-3-pyridazinyl)-4-morpholinyl)methanone] | 558 nM | 21500 nM
C[C@@H]1COC[C@H](c2ccc(OC3CC3)nn2)N1C(=O)c1cc2c3c(c(N)nc2cn1)COC3 [Example 550, (4-amino-1,3-dihydrofuro[3,4-c][1,7]naphthyridin-8-yl)((3S,5R)-3-(6-(cyclopropyloxy)-3-pyridazinyl)-5-methyl-4-morpholinyl)methanone] | 73 nM | 3150 nM
COc1ccc([C@H]2COC[C@@H](C)N2C(=O)c2cc3c(cc2F)nc(N)c2cnn(C)c23)nn1 [Example 551, (4-amino-7-fluoro-1-methyl-1H-pyrazolo[4,3-c]quinolin-8-yl)((3S,5R)-3-(6-methoxy-3-pyridazinyl)-5-methyl-4-morpholinyl)methanone] | 6 nM | 150 nM
COc1ccc([C@H]2COC[C@@H](C)N2C(=O)c2cc3c4c(c(N)nc3cc2F)[C@@H](C)OC4)nn1 [Example 552, ((3R)-4-amino-7-fluoro-3-methyl-1,3-dihydrofuro[3,4-c]quinolin-8-yl)((3S,5R)-3-(6-methoxy-3-pyridazinyl)-5-methyl-4-morpholinyl)methanone] | 13 nM | 369 nM
Cn1ncc2c(N)nc3ccc(C(=O)N4CCOC[C@@H]4c4ccc(OC(F)F)nn4)cc3c21 [Example 553, (4-amino-1-methyl-1H-pyrazolo[4,3-c]quinolin-8-yl)((3S)-3-(6-(difluoromethoxy)-3-pyridazinyl)-4-morpholinyl)methanone] | 513 nM | 32500 nM
C[C@@H]1COC[C@H](c2ccc(OC(F)F)nn2)N1C(=O)c1cc2c3c(c(N)nc2cn1)COC3 [Example 554, (4-amino-1,3-dihydrofuro[3,4-c][1,7]naphthyridin-8-yl)((3S,5R)-3-(6-(difluoromethoxy)-3-pyridazinyl)-5-methyl-4-morpholinyl)methanone] | 28 nM | 1100 nM
C[C@@H]1COC[C@H](c2ccc(C(F)(F)F)nn2)N1C(=O)c1cc2c3c(c(N)nc2cn1)COC3 [Example 555, (4-amino-1,3-dihydrofuro[3,4-c][1,7]naphthyridin-8-yl)((3R,5S)-3-methyl-5-(6-(trifluoromethyl)-3-pyridazinyl)-4-morpholinyl)methanone] | 41 nM | 1230 nM
Cn1ncc2c(N)nc3cc(F)c(C(=O)N4CCOC[C@@H]4c4ccc(OC(F)F)nn4)cc3c21 [Example 556, (4-amino-7-fluoro-1-methyl-1H-pyrazolo[4,3-c]quinolin-8-yl)((3S)-3-(6-(difluoromethoxy)-3-pyridazinyl)-4-morpholinyl)methanone] | 39 nM | 3580 nM
Cn1ncc2c3cc(C(=O)N4CCOC[C@@H]4c4ccc(OC(F)F)nn4)c(F)cc3nc(N)c21 [Example 557, (4-amino-7-fluoro-3-methyl-3H-pyrazolo[3,4-c]quinolin-8-yl)((3S)-3-(6-(difluoromethoxy)-3-pyridazinyl)-4-morpholinyl)methanone] | 697 nM | 37100 nM
Cn1ncc2c(N)nc3cc(F)c(C(=O)N4CCOC[C@@H]4c4ccc(C(F)(F)F)cn4)cc3c21 [Example 558, (4-amino-7-fluoro-1-methyl-1H-pyrazolo[4,3-c]quinolin-8-yl)((3S)-3-(5-(trifluoromethyl)-2-pyridinyl)-4-morpholinyl)methanone] | 17 nM | 630 nM
Cn1ncc2c(N)nc3cc(F)c(C(=O)N4CCOC[C@H]4c4ccc(C(F)(F)F)cn4)cc3c21 [Example 559, (4-amino-7-fluoro-1-methyl-1H-pyrazolo[4,3-c]quinolin-8-yl)((3R)-3-(5-(trifluoromethyl)-2-pyridinyl)-4-morpholinyl)methanone] | 575 nM | 12000 nM
Cn1ncc2c(N)nc3cc(F)c(C(=O)N4CCOC[C@@H]4c4ccc(C(F)(F)F)nn4)cc3c21 [Example 560, (4-amino-7-fluoro-1-methyl-1H-pyrazolo[4,3-c]quinolin-8-yl)((3S)-3-(6-(trifluoromethyl)-3-pyridazinyl)-4-morpholinyl)methanone] | 42 nM | 2880 nM
C[C@@H]1COC[C@H](c2ccc(OC(F)F)nn2)N1C(=O)c1cc2c(cc1F)nc(N)c1cnn(C)c12 [Example 561, (4-amino-7-fluoro-1-methyl-1H-pyrazolo[4,3-c]quinolin-8-yl)((3S,5R)-3-(6-(difluoromethoxy)-3-pyridazinyl)-5-methyl-4-morpholinyl)methanone] | 6 nM | 120 nM
